Measurements: patent EP4721753A1, “PHARMACEUTICAL COMPOSITION FOR PREVENTING OR TREATING CORONAVIRUS INFECTIOUS DISEASES COMPRISING CELL-PERMEABLE PEPTIDE-NUCLEIC ACID OLIGOMER AS ACTIVE INGREDIENT” (GiftedMS Co., Ltd., priority 2023, dated 2024)
Where “and” joins values, the source holds several entries; their conditions need not be identical. Identical values can stand only once. Like-named read-outs stand apart in the source and are kept apart here.

Columns and labels:
Type in all cases: cell-based
HCoV-OC43 = assay: qRT-PCR evaluation of antiviral efficacy (viral RNA level in culture supernatant), HCT8 cells infected with HCoV-OC43; settings: 1 µM PNA oligomer; HCT8 cells infected with HCoV-OC43 at 500 TCID50; viral RNA from cell supernatant on Day 3 after infection
Method: In order to analyze the level of viral RNA in viral particles present in a virus culture solution to determine how well the constructed PNA oligomer-based drugs inhibit viral genetic replication, qRT-PCR was performed.
Specifically, HCT8 cells cultured in 6-well plates one day before for drug screening were infected with HCoV-OC43 at a dose of 500 TCID50 using a serum-free RPMI medium. At the same time as infection, the cells were also treated with 1 µM of PNA oligomer, and after 30 minutes, the cells were washed twice with serum-free RPMI, and then the medium was replaced with an RPMI-Complete medium (containing 10% FBS and 1% penicillin/streptomycin) and the cells were treated with 1 µM of PNA oligomer. On Day 3 after infection, viral RNA was extracted from 140 µL of the cell supernatant using a QIAamp viral RNA mini kit manufactured by Qiagen. Virus extraction was performed according to the kit manual. The viral titer of the extracted viral RNA was measured by real-time PCR using a One step TB green kit manufactured by Takara. The primers used are as follows. HCoV-OC43 primer; Nucleoprotein (NP) gene (5'-[…]-3', 5'-[…]-3'). Real-time PCR conditions are as follows. Temperature Stage 1: Reverse transcription 42°C 5 min, 95°C 10 sec, 1 Cycle. Stage 2: PCR reaction 95°C 5 sec, 60°C 34 sec, 35 Cycles. Stage 3: melting curve analysis 95°C 15 sec, 65°C 60 sec, 95°C 15 sec.

SARS-CoV-2 = settings: 1000 nM; Vero cells pre-incubated 2 hours; viral RNA 24 hours after infection
SARS-CoV-2 virus = settings: Vero cells, 1000 to 0.49 nM, 2-fold dilution, viral RNA after 24 hours, three repeated experiments

Compound: CC(C)(C)[C@H](NC(=O)C(F)(F)F)C(=O)N1C[C@H]2[C@@H]([C@H]1C(=O)N[C@H](C#N)C[C@@H]1CCNC1=O)C2(C)C [PF07321332, Nirmatrelvir]
- Inhibition% (HCoV-OC43): 97.98%

Compound: Paxlovid
- Inhibition% (SARS-CoV-2): 96.03%
- IC50 (SARS-CoV-2 virus): 0.317 µM and 0.328 µM and 0.464 µM
- IC50 (SARS-CoV-2 virus; listed as Paxlovid (P.C)-1): 0.317 µM
- IC50 (SARS-CoV-2 virus; listed as Paxlovid (P.C)-2): 0.328 µM
- IC50 (SARS-CoV-2 virus; listed as Paxlovid (P.C)-3): 0.464 µM
